Test results taken from PMC11456799 (Molecular Therapy. Nucleic Acids, 2024).

Legend:
WA-1/2020 SARS-CoV-2 = system: WA-1/2020 SARS-CoV-2; set-up: species or system K18-hACE2 mice; details: mouse, in vivo, po, 150 mg/kg
SARS-CoV-2 WA-1/2020 = test: In vitro antiviral assay in HeLa-ACE2 cells; assay type: cell-based; details: Severe acute respiratory syndrome coronavirus 2, HeLa-ACE2
[1] = system: SARS-CoV-2 Delta (B.1.617.2); test: In vitro antiviral assay in HeLa-ACE2 cells; assay type: cell-based; details: Severe acute respiratory syndrome coronavirus 2, HeLa-ACE2
SARS-CoV-2 Omicron BA.1 = test: In vitro antiviral assay in HeLa-ACE2 cells; assay type: cell-based; details: Severe acute respiratory syndrome coronavirus 2, HeLa-ACE2
SARS-CoV-2 Omicron BA.5 = test: In vitro antiviral assay in HeLa-ACE2 cells; assay type: cell-based; details: Severe acute respiratory syndrome coronavirus 2, HeLa-ACE2
[2] = system: SARS-CoV-2 Omicron XBB1.5; test: In vitro antiviral assay in HeLa-ACE2 cells; assay type: cell-based; details: Severe acute respiratory syndrome coronavirus 2, HeLa-ACE2
SARS-CoV-2 Omicron JN.1 = test: In vitro antiviral assay in HeLa-ACE2 cells; assay type: cell-based; details: Severe acute respiratory syndrome coronavirus 2, HeLa-ACE2
HeLa-ACE2 cells = details: human
in vitro = details: human

SMILES | lung virus titer lowering (positive control) (WA-1/2020 SARS-CoV-2) | IC50 (SARS-CoV-2 WA-1/2020) [nM] | IC90 (SARS-CoV-2 WA-1/2020) [nM] | IC50 [1] [nM] | IC90 [1] [nM] | IC50 (SARS-CoV-2 Omicron BA.1) [nM] | IC90 (SARS-CoV-2 Omicron BA.1) [nM] | IC50 (SARS-CoV-2 Omicron BA.5) [nM] | IC90 (SARS-CoV-2 Omicron BA.5) [nM] | IC50 [2] [nM] | IC90 [2] [nM] | IC50 (SARS-CoV-2 Omicron JN.1) [nM] | IC90 (SARS-CoV-2 Omicron JN.1) [nM] | CC50 (HeLa-ACE2 cells) [nM] | CC50 (in vitro) [nM]
CC(C)C(=O)OC[C@H]1O[C@@H](n2ccc(NO)nc2=O)[C@H](O)[C@@H]1O [MK-4482, molnupiravir] | approximately 3 log10 ffu/g tissue |  |  |  |  |  |  |  |  |  |  |  |  |  | 
CC(C)(C)[C@H](NC(=O)C(F)(F)F)C(=O)N1C[C@H]2[C@@H]([C@H]1C(=O)N[C@H](C#N)C[C@@H]1CCNC1=O)C2(C)C [Nirmatrelvir, nirmatrelvir] |  | 110 | 210 | 40 | 170 | 30 | 80 | 50 | 140 | 20 | 50 | 60 | 150 | > 5000 | > 5000
